Laboratory results reported in patent US20240122941A1, “THERAPY BASED ON SYNTHETIC LETHALITY IN SWI/SNF COMPLEX-DYSFUNCTION CANCER” (NATIONAL CANCER CENTER, priority 2020, published 2024).
Read-outs that look alike come from different tables or passages of the source.

What was measured:
[1] = tested on: DMS114 cells (small cell lung cancer derived, SMARCA2/A4 deficient); assay: Cell growth suppression experiment (CellTiter-Glo), DMS114 cells; format: cell-based; details: for IC50 / cell survival rate (%) at treatment with 10 μM, DMS114: DMS114 cells; for IC50: cultured for 6 days, CellTiter-Glo; for cell survival rate (%) at treatment with 10 μM, DMS114: 6 days; for cell growth suppression effect on DMS114 cells: result in words
[2] = tested on: JMU-RTK-2+SMARCB1 cells (JMU-RTK-2 cells overexpressing SMARCB1); assay: Selectivity in cell growth suppression, JMU-RTK-2+SMARCB1 cells
Source text: (§1) The cytotoxic activity of a CBP/P300 inhibitor on JMU-RTK-2 cells and JMU-RTK-2+SMARCB1 cells was compared.

[3] = tested on: H460 cells (pulmonary adenocarcinoma derived, SMARCA2/A4 wild-type); assay: Cell growth suppression experiment (CellTiter-Glo), H460 cells; format: cell-based; details: for cell survival rate (%) at treatment with 10 μM, H460 / viability at 10 µM: 6 days; for IC50: cultured for 6 days, CellTiter-Glo; for viability at 10 µM: read-out: cell survival rate (%) at treatment with 10 μM, H460;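 on all read-outs here: luminescent viability read-out, compound added one day after seeding at 0.1% final DMSO, cells grown in DMEM-F12 with 10% fetal bovine serum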
[4] = tested on: TOV112D cells (small cell ovarian cancer derived, SMARCA2/A4 deficient); assay: Cell growth suppression experiment (CellTiter-Glo), TOV112D cells; format: cell-based; details: for cell survival rate (%) at treatment with 10 μM, TOV112D: 6 days; for IC50: cultured for 6 days, CellTiter-Glo;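 on all read-outs here: luminescent viability read-out of TOV112D cells grown in DMEM-F12 with 10% fetal bovine serum, compound exposure starting one day after plating, DMSO at 0.1% final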
[5] = tested on: 786-O cells (renal cancer derived, SMARCB1 wild-type); assay: Cell growth suppression experiment (CellTiter-Glo), 786-O cells; details: for IC50: read-out: IC50 786-O; for cell survival rate (%) at treatment with 10 μM, 786-O: 10 μM (maximum treatment concentration), 3 days
Experimental: (§2) G-401 cells and G-402 cells were cultured under the conditions of 5% CO2 at 37° C. in a 10% fetal bovine serum and 1% penicillin/streptomycin-containing McCoy's 5A medium. CHLA-06-ATRT cells were cultured under the conditions of 5% CO2 at 37° C. in a 10% B-27 supplement, 20 ng/mL EGF, 20 ng/mL FGF, and 1% penicillin/streptomycin-containing DMEM:F12 medium.

[6] = tested on: G-401 cells (malignant rhabdoid tumor derived, SMARCB1 deficient); assay: Cell growth suppression experiment (CellTiter-Glo), G-401 cells; details: for cell survival rate (%) at treatment with 10 μM, G-401: 10 μM (maximum treatment concentration), 3 days
Experimental: as §2

[7] = tested on: SMARCA2/A4 deficient cells, i.e., H23 cells, DMS114 cells, and TOV112D cells; assay: Cell growth suppression experiment, SMARCA2/A4 deficient cells (summary of Example 8); format: cell-based; details: H23, DMS114 and TOV112D cells versus H460 cells; result in words
Experimental: Cytotoxic activity of a CBP/P300 on SMARCA2/A4 deficient cells, i.e., H23 cells (pulmonary adenocarcinoma derived), TOV112D cells (small cell ovarian cancer derived), and DMS114 cells (small cell lung cancer derived), and SMARCA2/A4 wild-type cells, i.e., H460 cells (pulmonary adenocarcinoma derived) was compared.
H23 cells, TOV112D cells, DMS114 cells, and H460 cells were cultured under 5% CO2 conditions at 37° C. in a 10% fetal bovine serum and 1% penicillin/streptomycin-containing DMEM-F12 medium.
Cells were seed on a 96-well plate at 250 to 500 cells per well. […] After completion of culture, the cell survival rate was measured using CellTiter-Glo Luminescent Cell Viability Assay (Promega, G770).

[8] = tested on: SMARCB1 deficient cells, i.e., G-401 cells, G-402 cells, and CHLA-06-ATRT cells; assay: Cell growth suppression experiment, SMARCB1 deficient cells (summary of Example 1); details: G-401, G-402 and CHLA-06-ATRT cells versus 786-O cells; result in words
Experimental: as §2

[9] = tested on: JMU-RTK-2 cells (malignant rhabdoid tumor derived, SMARCB1 deficient); assay: Selectivity in cell growth suppression, JMU-RTK-2 cells
Source text: as §1

[10] = tested on: H23 cells (pulmonary adenocarcinoma derived, SMARCA2/A4 deficient); assay: Cell growth suppression experiment (CellTiter-Glo), H23 cells; format: cell-based; details: for cell survival rate (%) at treatment with 10 μM, H23: 6 days; for IC50: cultured for 6 days, CellTiter-Glo;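 on all read-outs here: compounds tested as CBP/P300 agents, added one day after plating in 96-well plates with DMEM-F12 plus 10% fetal bovine serum, 0.1% DMSO final, luminescent viability read-out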
[11] = read-out: JMU-RTK-2 + SMARCB1 IC50, JMU-RTK-2+SMARCB1 cells, cultured for 6 days, CellTiter-Glo
[12] = read-out: IC50 G-401, G-401 cells, cultured for 3 days, CellTiter-Glo cell survival
[13] = read-out: JMU-RTK-2 IC50, JMU-RTK-2 cells, cultured for 6 days, CellTiter-Glo
[14] = 786-O cells, cultured for 3 days, CellTiter-Glo cell survival
[15] = 144 h, read-out: JMU-RTK-2 + SMARCB1 IC50, JMU-RTK-2+SMARCB1 cells, cultured for 6 days, CellTiter-Glo
[16] = Homo sapiens, 786-0, 72 h, read-out: cell survival rate (%) at treatment with 10 μM, 786-O
[17] = Homo sapiens, G-401, 72 h, read-out: IC50 G-401, G-401 cells, cultured for 3 days, CellTiter-Glo cell survival
[18] = 144 h, read-out: JMU-RTK-2 IC50, JMU-RTK-2 cells, cultured for 6 days, CellTiter-Glo

Row | SMILES | IC50 [1] | IC50 [2, 11] | cell survival rate (%) at treatment with 10 μM, H460 [3] | IC50 ([3]; Homo sapiens, NCI-H460, 144 h) | cell survival rate (%) at treatment with 10 μM, TOV112D [4] | IC50 [4] | IC50 ([5]; Homo sapiens, 786-0, 72 h) | IC50 [6, 12] | cell growth suppression effect on SMARCA2/A4 deficient cells [7] | cell growth suppression effect on SMARCB1 deficient cells [8] | IC50 [9, 13] | cell survival rate (%) at treatment with 10 μM, H23 [10] | IC50 ([1]; Homo sapiens, DMS-114, 144 h) | IC50 [2, 15] | viability at 10 µM ([3]; Homo sapiens, NCI-H460, 144 h) | IC50 ([4]; Homo sapiens, TOV112D, 144 h) | viability at 10 µM [5, 16] | IC50 [6, 17] | IC50 [9, 18] | IC50 ([10]; Homo sapiens, NCI-H23, 144 h) | other results
1 | CNC(=O)Cn1cc(-c2ccc3c(c2)C(F)CC32NC(=O)N(CC(=O)N(Cc3ccc(F)cc3)[C@@H](C)C(F)(F)F)C2=O)cn1 (single isomer, unassigned) [Compound 1] | 4.83 µM | 27.3 µM | 104% | > 10 µM | 44% | > 10 µM | > 10 µM | 2.7 µM | particularly selective and potent cell growth suppression effect | selective and potent Cell growth suppression effect | 2.5 µM | 52% | – | – | – | – | – | – | – | – | viability at 10 µM ([5]; Homo sapiens, 786-0, 72 h, read-out: cell survival rate (%) at treatment with 10 μM, 786-O, 786-O cells, 10 μM (maximum treatment concentration), 3 days): 104%; IC50 [10]: > 10 µM
2 | CNC(=O)Cn1cc(-c2ccc3c(c2)C(F)CC32NC(=O)N(CC(=O)N(Cc3ccc(F)cc3)[C@@H](C)C(F)(F)F)C2=O)cn1 (single isomer, unassigned) [Compound 2] | > 10 µM | 20.1 µM | 100% | – | 96% | > 10 µM | – | > 10 µM | particularly selective and potent cell growth suppression effect | – | 4.8 µM | 99% | – | – | – | – | – | – | – | – | cell survival rate (%) at treatment with 10 μM, DMS114 [1]: 67%; cell growth suppression effect on DMS114 cells [1]: cell growth suppression effect; IC50 [3]: > 10 µM; cell survival rate (%) at treatment with 10 μM, 786-O ([5]; 786-O cells): 108%; IC50 [5, 14]: > 10 µM; cell survival rate (%) at treatment with 10 μM, G-401 ([6]; G-401 cells): 62%; IC50 [10]: > 10 µM
3 | CNC(=O)Cn1cc(-c2ccc3c(c2)C(F)CC32NC(=O)N(CC(=O)N(Cc3ccc(F)cc3)[C@@H](C)C(F)(F)F)C2=O)cn1 (single isomer, unassigned) [Compound 3] | 3.44 µM | 26.3 µM | 105% | – | 43% | > 10 µM | – | 4.9 µM | particularly selective and potent cell growth suppression effect | selective and potent Cell growth suppression effect | 2.6 µM | 49% | – | – | – | – | – | – | – | – | IC50 [3]: > 10 µM; cell survival rate (%) at treatment with 10 μM, 786-O ([5]; 786-O cells): 107%; IC50 [5, 14]: > 10 µM; IC50 [10]: > 10 µM
4 | CO[C@H]1CC[C@H](n2c([C@@H]3CCCC(=O)N3c3ccc(F)c(F)c3)nc3cc(-c4c(C)noc4C)ccc32)CC1 [Compound 9] | – | – | – | > 10 µM | 51% | – | > 10 µM | – | particularly selective and potent cell growth suppression effect | selective and potent Cell growth suppression effect | – | – | 1.1 µM | 3.7 µM | 94% | > 10 µM | 83% | 2.6 µM | 0.7 µM | 5.61 µM | –
5 | COC(=O)N1c2ccc3c(nc(Cc4ccccc4)n3[C@H]3CCC[C@H](C(=O)O)C3)c2CC[C@@H]1C [Compound 10] | – | – | – | > 10 µM | 84% | – | > 10 µM | – | particularly selective and potent cell growth suppression effect | selective and potent Cell growth suppression effect | – | 53% | 1.43 µM | 5.3 µM | 95% | > 10 µM | 82% | 1.8 µM | 1.6 µM | > 10 µM | –
6 | COC(=O)N1c2ccc3c(nc(Cc4ccccc4)n3[C@@H]3CCC[C@@H](C(=O)O)C3)c2CC[C@@H]1C [Compound 11] | – | – | – | > 10 µM | 93% | – | > 10 µM | – | particularly selective and potent cell growth suppression effect | – | – | 75% | 3.73 µM | 5.8 µM | 99% | > 10 µM | 93% | > 10 µM | 2 µM | > 10 µM | cell survival rate (%) at treatment with 10 μM, G-401 ([6]; G-401 cells): 53%
7 | CC(=O)N1CCc2c(c(Nc3ccc(-c4cnn(C)c4)cc3F)nn2[C@@H]2CCOC2)C1 [Compound 13] | – | – | – | > 10 µM | 121% | – | > 10 µM | – | – | – | – | 92% | > 10 µM | 8.1 µM | 102% | > 10 µM | 104% | > 10 µM | 2.8 µM | > 10 µM | cell survival rate (%) at treatment with 10 μM, DMS114 [1]: 64%; cell growth suppression effect on DMS114 cells [1]: cell growth suppression effect; cell survival rate (%) at treatment with 10 μM, G-401 ([6]; G-401 cells): 78%
